Values of other authors, collected in patent US20210236604A1, “THERAPEUTIC TREATMENT FOR NEUROTROPHIC KERATOPATHY” (priority 2017, published 2021).

Key:
[1] = tested on: corneal epithelium wound healing; conditions: with substance-P; Nishida 2009; cited from earlier work
[2] = tested on: sub-basal plexus corneal nerves; conditions: diabetic mice; Chen 2013; cited from earlier work
corneal ulcers = conditions: systemic administration; Aynsley 1945; cited from earlier work
corneal abrasions = conditions: diabetic rats, cited from earlier work
decubitus ulcers = conditions: Van Ort 1976; cited from earlier work
[3] = tested on: experimentally-induced superficial skin wounds; conditions: diabetic and non-diabetic individuals; Greenway 1999; cited from earlier work

Substance	corneal epithelium wound healing [1]	loss of sub-basal plexus corneal nerves [2]	healing of corneal ulcers (corneal ulcers)	wound healing after corneal abrasions (corneal abrasions; Zagon 2007, Klocek 2009)	corneal sensation (corneal abrasions; Zagon 2007)	healing of decubitus ulcers (decubitus ulcers)	healing of experimentally-induced superficial skin wounds [3]
Insulin-like growth factor-1 [IGF-1]	act synergistically with substance-P to promote corneal epithelium wound healing						
insulin [topical insulin]		slow the loss	improved healing of corneal ulcers	improves wound healing	improves corneal sensation	improve healing	improve healing
